Target: chymotrypsin (Bos taurus, UniProt P00766)
Experiment: chymotrypsin inhibition assay
Type: biochemical
Conditions: protease inhibition test; statement of the abstract

Substance: streptopeptolin [compound 1]
- inhibitory activity against chymotrypsin (in words): showed inhibitory activity
